This note sets out measurements from PubChem BioAssay (NCI).

Holding throughout (assay): NCI anticancer screen, dose series, 48 h
For assay [1], the system named is MDA-MB-231 breast.
For assay [2], the system named is HCT-116 colon.
Assay [3] has as its system A549 NSCLC.
The test system of assay [4] is MDA-MB-435.
Assay [5] deals with HT29 colon.
The test system of assay [6] is EKVX NSCLC.
The test system of assay [7] is IGROV1 ovarian.
Assay [8] deals with SN12C renal.
Assay [9] concerns RPMI-8226 leukemia.
Assay [10] has as its system MDA-N.
Assay [11] has as its system NCI-H522 lung.
Assay [12] concerns SNB-19 CNS.
In assay [13] the test system is SK-MEL-2 melanoma.
Assay [14] deals with UACC-257 melanoma.
In assay [15] the test system is UACC-62 melanoma.
Assay [16] deals with LOX IMVI melanoma.
The subject of assay [17] is OVCAR-3 ovarian.
Assay [18] deals with SK-MEL-28 melanoma.
For assay [19], the system named is NCI/ADR-RES ovarian.
Assay [20] deals with HS 578T breast.

Molecules are shown by their SMILES.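 96-well plates; 48 h exposure; 5 concentrations. Endpoints by linear interpolation between flanking doses. Not reached: highest tested concentration assigned. Definition used: TGI = concentration required for complete inhibition of growth.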

On to `CC(C)CCC[C@@H](C)[C@H]1CC[C@H]2C3=C[C@H](OS(=O)(=O)O)[C@@]4(O)C[C@@H](O)CC[C@]4(C)[C@@]3(O)CC[C@]12C`, for which the TGI in assay [1], in assay [2], in assay [3], in assay [4], in [5] and in assay [6] was more than 100 µM throughout. For the same compound, the TGI in [7], in [8], in assay [9], in assay [10], in assay [11] and in assay [12] was more than 100 µM throughout. In addition, the TGI in assay [13], in [14], in assay [15], in assay [16], in [17] and in [18] was more than 100 µM throughout. This compound also returned a TGI in [19] of more than 100 µM.
As to `Cc1ccc(/C=C2\Cc3cc(C)c(C)cc3C2=O)c(C(=O)O)c1`, the TGI in assay [1], in assay [2], in assay [3], in assay [5], in assay [6] and in [7] was more than 100 µM each time. Besides, the TGI in assay [8], in assay [9], in [10], in [11], in [12] and in assay [13] was more than 100 µM throughout. The TGI in assay [14], in [15], in assay [16], in assay [17], in [20] and in assay [18] was more than 100 µM in each case.
Regarding `CCC(C)N1CN(c2ccccc2)C2(CCN(CCCSc3ccc(F)cc3)CC2)C1=O` (configuration not stated), the TGI in assay [1] was determined as 1.1 µM; in assay [2], 10.1 µM; in [3], 15.1 µM; in assay [4] it was 11.7 µM; in assay [5], 8.3 µM; in assay [6], 10.4 µM. For the same compound, the TGI in assay [7] was 14.2 µM; in assay [8], more than 100 µM; in assay [9], 5.72 µM; in [10], 10.7 µM; in assay [11] it was 18.9 µM; in assay [12] it was 19.7 µM. Besides, the TGI is 7.37 µM in [14]; 17.5 µM in assay [15]; 8.35 µM in assay [16]; 7.25 µM in assay [17]; 23.8 µM in [18]; 11 µM in assay [19].
As for `C[C@@]1(OC(=O)c2cc([N+](=O)[O-])cc([N+](=O)[O-])c2)C[C@@H]2CCCC[C@@H]21`, the TGI in [1], in assay [2], in assay [3], in assay [5], in assay [6] and in assay [7] was more than 100 µM each time. Also, the TGI in assay [8], in assay [9], in assay [10], in [11], in assay [12] and in assay [13] was more than 100 µM each time. Moreover, the TGI in assay [14], in assay [15], in [16], in assay [20], in assay [18] and in assay [19] was more than 100 µM in each case.
Regarding `CNC(=O)N1N[C@H](c2ccccc2)[C@@H]1c1ccccc1`, the TGI in assay [1] was more than 100 µM; in assay [2] it was 36.3 µM; in [3] it was more than 100 µM; in [5] it was 32.3 µM; in assay [6], 85.6 µM; in assay [7] it was 56.4 µM. Also, the TGI was 62.7 µM in [8]; more than 100 µM in assay [10]; more than 100 µM in [12]; 32 µM in assay [13]; more than 100 µM in [14]; 26.8 µM in [15]. Further, the TGI is 44.3 µM in assay [16]; 36.7 µM in [17]; more than 100 µM in assay [20]; 40.7 µM in assay [18]; 36.6 µM in assay [19].
With `O=c1n(-c2ccccc2)c(=O)n2c(-c3ccccc3)c(-c3ccccc3)n12`, the TGI in assay [1], in assay [2], in assay [3], in assay [5], in assay [6] and in assay [7] was more than 100 µM each time. The TGI in [8], in [10], in assay [12], in assay [13], in assay [14] and in assay [15] was more than 100 µM each time. Besides, the TGI in assay [16], in assay [17], in [20], in assay [18] and in [19] was more than 100 µM in each case.
